Experimental findings from patent US20200281897A1, “INDAZOLE DERIVATIVES FOR CANCER TREATMENT” (Servicio Andaluz de Salud, priority 2016, published 2020) are described below.

For series [1], the system named is U266. Briefly: MTT cell viability assay, myeloma cell line U266. Type of series: cell-based, human. Conditions: U266, MTT, 18 hours, doses 0-50 μM; read-out: IC50, cell viability. As for the experimental part: In vitro studies were carried out using six different human MM cell lines, U266, RPMI8226, MM1S, MM1R, U266-LR7, and RPMI-LR5. For ex vivo assays, human primary cells from healthy donors and MM patients were used (Table 1). Human MM cell lines U266, RPMI8226, and MM1.S were acquired from ATCC and lines U266-LR7, RPMI-LR5, and MM1.R were kindly provided by Dr. Enrique Ocio (Hospital Universitario de Salamanca, Spain). The primary cells were obtained from bone marrow (BM) aspirates or peripheral blood (PB) samples, and the peripheral blood mononuclear cells (PBMCs) were isolated by Ficoll-Hypaque centrifugation and washed twice in phosphate buffered saline (PBS) containing 1% BSA. Hematopoietic stem cells and B and T lymphocytes were isolated from healthy PB donors by positive immunomagnetic separation using human MACS CD34+, CD19+, and CD3+ microbeads, respectively. MM plasma cells were obtained from the bone marrow (BM) of patients with an infiltration of cells of more than 30% (Table 1). The MM plasma cells were identified using CD138+, and were then distinguished from the other cell populations by flow cytometry using a suitable combination of antibodies: anti-human CD64-FITC, CD34-PE, CD56-APC, CD38-APC-H7, and CD45-Pacific Blue antibodies (BD Biosciences, San Jose, Calif.). All the cell lines were cultured in RPMI-1640 supplemented with 10% fetal bovine serum (FBS) and 1% penicillin/streptomycin, as recommended by the supplier. For human primary cells, the concentration of FBS was up to 20%.
The MM cell lines and primary cells were exposed to different doses of indazole compounds, and viability was evaluated at 18, 48, and 72 hours. Pretreatments with the ceramide synthesis inhibitor (FB1), pan-caspase (ZVAD-FMK), and CB antagonists (PGN-8, PGN-37, and PGN-70) were performed for 30 minutes, and then the cells were incubated with indazole compound WIN-55 up to 18 hours. Cell viability was determined using the MTT assay Cell Counting Kit-8 (Dojindo, Kumamoto, Japan) according to the manufacturer's instructions.

Series [2] relates to U266. Briefly: Western blot and immunofluorescence in U266 cells. Conditions: U266, 50 μM. Type of series: cell-based, human. As to the method: The extracts for Western blot were taken after 0, 2, 6, 18, and 24 hours. The cells were lysed according to Gilbert et al., 2002. (J Immunol Methods. 2002, 271:185-201), by adding 2% ASB-14 (Calbiochem, Beeston, United Kingdom) to the isotonic lysis buffer. The protein concentration was determined by Pierce® Microplate BCA Protein Assay kit-Reducing Agent Compatible (Pierce, Rockford, Ill.). The samples were subjected to SDS/PAGE in AnykD precast gels (Bio Rad, Hercules, Calif.) and transferred to PVDF membranes using Trans-Blot® Turbo™ System (Bio-Rad). The membranes were incubated over night at 4° C. with primary antibody in 0.05% Tween 20-Tris buffered saline (TTBS) then with the suitable secondary antibody, and they were subjected to chemiluminescence detection. As a control condition, the cells were treated with DMSO (<0.15%) in RPMI 1640 medium from Gibco (Gaithersburg, Md.).
The antibodies for caspase-2, -8, -9, active caspase-3, -p-Akt (phospho T308), p-Erk (T202+Y204), -p-p38MAPK (phospho T180+Y182), -p-JNK (phospho T183+Y185), -SPT, and the CB1 and CB2 receptors were from Abcam, anti-MCL-1 and -Bcl-xL were from Santa Cruz Biotechnology, anti-PARP was from Cell Signaling Technology, anti-Bax and -Bak were from BD Biosciences. Anti-beta-tubulin was from Sigma-Aldrich. All the horseradish peroxidase (HRP)-conjugated secondary antibodies used were from Jackson ImmunoResearch and produced in a donkey to prevent the possible cross-reactivity when several tests were performed.
The cells treated for 6 hours with indazole compounds were collected and placed on a slide. Immunofluorescence staining was performed as described previously by Vielhaber et al. 2001 (Glycobiology. 2001, 11:451-7) using anti-ceramide as the primary antibody. The ceramide antibody was obtained from Sigma-Aldrich, and the Alexa-488-conjugated secondary antibody was obtained from Abcam. As a control condition, the cells were treated with DMSO (<0.15%) in RPMI 1640 medium from Gibco (Gaithersburg, Md.).

Series [3] deals with U937. Briefly: WST-1 cell viability assay, U937. Type of series: cell-based, human. As to conditions: U937, 18 hours. As to the method:
U937, NB-4, KG-1, and MOLM-13 (DMSZ, Braunschweig, Germany) were cultured in complete RPMI 1640 medium (with 2 mM of L-glutamine, 100 mg of penicillin, 100 μg/ml of streptomycin, and with 10% FBS), supplemented with 10 mM HEPES, 1×NaPuvuvato, and 1× non-essential amino acids.
The cell lines and primary cells were cultured in 96-well plates (5×10e5 cells per well) with the addition of the indicated concentrations of WIN 55,212-2 or PGN cannabinoids in DMSO or with the solvent only in triplicate at 18, 48, and 72 hours. Caspase inhibitor Z-VAD (OMe)-FMK or the CB2 receptor antagonist PGN-8, -37, and -70, together with the cannabinoid WIN-55,212-2, were also added. Cell viability was determined by means of the WST-1 assay [2-(4-iodophenyl)-3-(4-nitrophenyl)-5-(2,4-disulfophenyl)-2H-tetrazolium] according to the manufacturer's instructions (Dojindo Molecular Technologies). Optical densities were measured at 450 nm using a Multiskan™ Go Microplate plate reader (Thermo Fisher Scientific, Waltham, Mass., USA).
Now it will be analyzed whether the exposure to cannabinoids had any effect on the viability of the tumor cells in vitro. […]

Series [4] relates to hematopoietic progenitor populations. Kind of series: Effect on normal hematopoiesis in healthy BALB/c mice. Format: in vivo. Conditions: 5 mg/kg/day for 7 and 28 days. As for the experimental part: The effect of the cannabinoid on normal hematopoiesis was also tested by means of the treatment of healthy BALB/c mice with WIN-55,212-2 at a dose of 5 mg/kg/day for 7 and 28 days. The bone marrow and the peripheral blood population were analyzed by means of flow cytometry and blood counts.

Take `CS(=O)(=O)O.Cc1c(C(=O)c2cccc3ccccc23)c2cccc3c2n1[C@H](CN1CCOCC1)CO3` [WIN-55, (R)-(+)-[2,3-dihydro-5-methyl-3-(4-morpholinomethyl)-pyrrolo[1,2,3]-1,4-benzoxazin-6-yl]-1-naphthalenylmethanone mesylate]: the half-inhibitory concentration (IC50) in series [1] turned out to be 17.2 µM. In addition, in series [2], the “caspase-3 activation (cleaved forms, Western blot)” value is given as “induction of caspase-3 activation” and the “expression of endoplasmic reticulum stress marker proteins CHOP, ATF-4, p-IRE1, XBP-1s” value is given as “slight but sustained decrease”. In addition, the “expression of ceramides (immunofluorescence)” value in series [2] (6 hours) is “considerable increase in the expression of ceramides”. In addition, the “expression of p-Akt (phospho-T308)” value in series [2] (early points in time, decrease at later times) is recorded as “significant overexpression of p-Akt”. The “expression level of serine-palmitoyltransferase (SPT)” value in series [2] (maximum at 18 hours) was “increased”. Besides, in series [3], the “% viable cells at 50 μM” value amounted to 17.2% and the IC50 came out at 16 µM. For the same compound, in series [4], the “viability of hematopoietic progenitor populations” value is listed as “do not affect the viability”.
